Source: patent US20100029636A1, “Lck inhibitors” (priority 2006, published 2010)

Tests used:
[1] = tested on: blood IL-2 levels induced by SEB; assay: In vivo model: mouse SEB/IL-2; parameters: species or system BALB/c mice; details: 100 mg/kg po, serum IL-2 two hours after SEB
Experimental: The compound to be tested is administered to BALB/c mice followed e.g. 1 h later, by an intravenous administration of 3 µg per mouse of SEB to induce a rise in blood IL-2 levels. Two hours after the administration of SEB, mice are bled, and levels of IL-2 are measured in the serum using standard methods. Under control conditions (vehicle only) IL-2 concentrations measured are mostly in the range of 2000 to 8000 pg/ml.

Lck = Lck (Homo sapiens, UniProt P06239); assay: Biochemical Lck kinase assay (TR-FRET, LANCE)
Sequence of Lck (P06239 whole entry, species assumed): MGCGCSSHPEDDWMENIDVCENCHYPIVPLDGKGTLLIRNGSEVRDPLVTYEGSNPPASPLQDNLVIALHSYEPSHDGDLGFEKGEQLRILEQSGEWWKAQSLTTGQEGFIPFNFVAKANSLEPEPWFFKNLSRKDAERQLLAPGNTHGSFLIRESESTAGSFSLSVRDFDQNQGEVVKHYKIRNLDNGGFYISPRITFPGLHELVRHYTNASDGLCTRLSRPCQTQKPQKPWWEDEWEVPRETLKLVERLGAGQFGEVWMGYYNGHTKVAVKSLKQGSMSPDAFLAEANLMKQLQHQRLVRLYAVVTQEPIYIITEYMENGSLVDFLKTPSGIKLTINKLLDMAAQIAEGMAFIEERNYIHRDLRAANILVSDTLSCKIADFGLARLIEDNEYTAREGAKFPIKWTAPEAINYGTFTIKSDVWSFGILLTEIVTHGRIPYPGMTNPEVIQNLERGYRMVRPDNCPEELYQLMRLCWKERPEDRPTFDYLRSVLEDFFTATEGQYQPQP

SMILES	inhibits the secretion of IL-2 [1] [%]	IC50 (Lck) [nM]
CC(C)COC(=O)Nc1ccc(-c2cnc3c(-c4ccc(N5CCN(C)CC5)cc4)cnn3c2N)cc1 [Example 10, (4-{7-Amino-3-[4-(4-methyl-piperazin-1-yl)-phenyl]-pyrazolo[1,5-a]pyrimidin-6-yl}-phenyl)-carbamic acid isobutyl ester]	59	10
Cc1cccc(OC(=O)Nc2ccc(-c3cnc4c(-c5cccc(N6CCN(C)CC6)c5)cnn4c3N)cc2)c1C [Example 65]		25
CCc1ccc(OC(=O)Nc2ccc(-c3cnc4c(-c5cccc(N6CCN(C)CC6)c5)cnn4c3N)cc2)cc1 [Example 77]		25
Cc1ccc(NC(=O)Nc2ccc(-c3cnc4c(-c5cccc(N6CCN(C)CC6)c5)cnn4c3N)cc2)cc1 [Example 126]		15
Cc1ccc([C@H](C)NC(=O)Nc2ccc(-c3cnc4c(-c5cccc(N6CCN(C)CC6)c5)cnn4c3N)cc2)cc1 [Example 172]		34
